# From PMC3397443, “Sinularones A–I, New Cyclopentenone and Butenolide Derivatives from a Marine Soft Coral Sinularia sp. and Their Antifouling Activity” (Marine Drugs, 2012)
# Read-outs that look alike come from different tables or passages of the source.
# What was measured:
# [1] = Toxicity against barnacle larvae (LC50); conditions: Balanus amphitrite (barnacle), in vivo; concentration required to kill 50% of larvae of a tested population
# Protocol: (§1) All compounds were tested for their cytotoxicity against a panel of tumor cell lines including human ovarian carcinoma A2780, human lung adenocarcinoma A549, human gastric carcinoma BGC823, human hepatoma Bel7402, and human colonic carcinoma HCT-8. […] In order to detect whether these compounds play a role for ecological functions, the test for antifouling activity against the larvae of the barnacle Balanus amphitrite was performed. […] A primary discussion of structure-activity relationship implied that α,β-unsaturated 2,3-dimethyl-γ-lactone is a functional unit for anti-barnacle.
# (§2) Adults of the barnacle Balanus amphitrite Darwin were exposed to air for more than 6 h, and then were placed in a container filled with fresh 0.22 µm filtered sea water (FSW) to release nauplii. The collected nauplii were reared to cyprid stage according to the method described by Thiyagarajan et al.. When kept at 26–28 °C and fed with Chaetoceros gracilis, larvae developed to cyprids within four days. Fresh cyprids were used in the tests.
# [2] = tested on: larvae of the barnacle Balanus amphitrite; assay: Larval settlement bioassay (antifouling activity); format: in vivo; conditions: for EC50: Amphibalanus amphitrite, read-out: Balanus amphitrite Larvae EC50
# Protocol: as §1, §2
# [3] = concentration where 50% of larval population was inhibited to settle compared to control, cyprids
structure (smiles),measurement,setting,value
"CCOC(=O)CCCCCCCCCCCC[C@]1(O)OC(=O)C(C)=C1C [Compound 9, Sinularone I]",LC50,[1],> 50 µg/mL
same,EC50,[2]; [3],12.6 µg/mL
"CCCCC[C@]1(O)OC(=O)C(C)=C1C [Compound 10, (S)-4-hydroxy-2,3-dimethyl-4-pentyl-γ-lactone]",LC50,[1],> 50 µg/mL
same,EC50,[2],3.84 µg/mL
same,antifouling activity (in words),[2]; against the barnacle Balanus amphitrite,the most active
"CCO[C@@]1(CCC(=O)OC)OC(=O)C(C)=C1C [Compound 8, Sinularone H]",LC50,[1],> 50 µg/mL
same,EC50,[2]; [3],21.4 µg/mL
"CCOC(=O)CC[C@]1(O)OC(=O)C(C)=C1C [Compound 7, Sinularone G]",LC50,[1],> 50 µg/mL
same,EC50,[2]; [3],18.6 µg/mL
"CCCCC[C@@]1(O)C(C)=C(C)C(=O)[C@H]1CC(=O)OCC [Compound 2, Sinularone B]",LC50,[1],> 50 µg/mL
same,EC50,[2]; [3],23.5 µg/mL
"CC(=O)CC/C=C(/C)C[C@@H]1CC(C)(C)CC1=O [Compound 1, Sinularone A]",LC50,[1],> 50 µg/mL
same,EC50,[2]; [3],13.9 µg/mL
